# Measured values from publication PMC9927457 (Microbiology Spectrum, 2023).
# Like-named read-outs stand apart in the source and are kept apart here.
# What was measured:
# HepG2 cells = test: HepG2 cytotoxicity; format: cell-based, human; details: 3 days exposure, CellTiter-Glo
# Procedure: HepG2 cells were used to measure eukaryotic cytotoxicity. Viability of HepG2 was measured using CellTiter-Glo reagent (Promega) after 3 days of exposure to compounds. […] Staurosporine controls (maximum inhibition) and a staurosporine dose response were included on every plate.
# [1] = test system: M. tuberculosis wild-type strain; test: MIC against wild-type M. tuberculosis; format: cell-based, Mycobacterium tuberculosis; details: for MIC: read-out: MIC Wild type
# [2] = test system: M. tuberculosis strain under expressing LepB (LepB-UE); test: microbe, parasite or virus in culture; format: cell-based, Mycobacterium tuberculosis
# [3] = Plasma protein binding (Rapid Equilibrium Dialysis); format: in vitro ADME, human; details: human plasma; for fraction unbound: human, plasma
# Procedure: Molecule fraction fraction Post-Assay
# Table S5. Plasma protein binding
# Protein binding was measured in human plasma using Rapid Equilibrium Dialysis (RED) devices (Pierce) according to the manufacturers’ instructions; 5 µM compounds in plasma were dialysed against PBS for 4 h at 37C. Compounds were detected by LC-MS/MS in plasma and PBS
# Caco-2 cells = test: Caco-2 permeability
# Procedure: (§1) Permeability was measured across Caco-2 cells cultured in a Millipore 96-well Caco-2 plate. For apical to basolateral (A→B) permeability, 10 μM compound was added to the apical (A) side and amount of permeation was determined on the basolateral (B) side; for basolateral to apical (B→A) permeability, the compound was added to the B side and the amount of permeation was determine on the A side. Time points were taken at 2 h.
# Table S2. Permeability. Permeability was measured using Caco-2 cells after 1 and 2 hours incubation with compound. (A→B) is Apical to Basolateral; (B→A) is Basolateral to Apical. Data is expressed as permeability (10-6 cm s-1). dQ/dt is rate of permeation, C0 is initial concentration […]
# Article Duration direction value replicate replicate mean recovery
# [4] = Microsomal metabolic stability; details: human, microsomes, pH 7.4
# Procedure: as §1
# Table S3. Metabolic stability. Metabolic stability was measured using human liver microsomes. […]
# [5] = target: SPase activity in M. tuberculosis H37Rv cell membrane fractions (Mycobacterium tuberculosis, UniProt P9WKA1); test: Inhibition of secretion (SPase activity) in membrane fractions; format: biochemical; details: fluorogenic peptide substrate 2 μM; 4 h, 37 °C
# Sequence of SPase activity in M. tuberculosis H37Rv cell membrane fractions (P9WKA1 whole entry): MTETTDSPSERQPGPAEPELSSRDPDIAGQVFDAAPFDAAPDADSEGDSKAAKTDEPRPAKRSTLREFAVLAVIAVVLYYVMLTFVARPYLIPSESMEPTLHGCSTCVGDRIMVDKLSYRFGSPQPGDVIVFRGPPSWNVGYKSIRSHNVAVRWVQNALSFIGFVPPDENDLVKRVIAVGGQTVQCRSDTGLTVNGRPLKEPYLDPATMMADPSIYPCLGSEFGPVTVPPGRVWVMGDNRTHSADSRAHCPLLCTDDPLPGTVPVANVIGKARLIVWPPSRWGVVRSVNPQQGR
# RAW 264.7 macrophages = test: Cytotoxicity against infected macrophages; format: cell-based, murine; details: Mus musculus; infected RAW264:7 cells, 72 h; read-out: IC50 Macrophage
# Procedure: Murine RAW 264.7 macrophages (ATCC TIB-71) were infected with M. tuberculosis DsRed (DREAM8) ([29]) as described at a multiplicity of infection of 1 for 24 h, washed, harvested, and dispensed into 384-well plates ([30]). Infected macrophages were exposed to compounds for 72 h; cell nuclei were stained with SYBR green I. Plates were imaged with an ImageXpress Micro High Content Screening System (Molecular Devices) using a ×4 objective and FITC and Texas Red channels. MetaXpress was used to determine the integrated intensity of bacteria or macrophages. […] Isoniazid and staurosporine controls (maximum inhibition) and dose responses were included on every plate.
# [6] = concentration required to inhibit growth by 90%, 5 days culture
# [7] = Mycobacterium tuberculosis, 120 h, concentration required to inhibit growth by 90%, 5 days culture
# [8] = Mycobacterium tuberculosis, 120 h
Compound,"IC50 (HepG2 cells; Homo sapiens, HepG2, 72 h)","MIC [1, 7]","MIC [2, 8]",other results
1-butyl-3-(5-methoxybenzo[d]oxazol-2-yl)thiourea [Molecule 35],,,,"IC50 (HepG2 cells): > 100 µM; MIC [1, 6]: >200 µM; MIC [2]: >200 µM"
"CC(C)NC[C@H](O)COc1cccc2ccccc12 (racemic) [Propanolol, propanolol, reference compound]",,,,"Mean plasma fraction Unbound Fuplasma ([3]; 5 µM, dialysed against PBS 4 h at 37C): 28.00%; Post-Assay Recovery ([3]; RED device): 89.4%; Efflux ratio (Re) (Caco-2 cells; Papp(B→A)/Papp(A→B)): 1.5; Mean A→B Papp (Caco-2 cells; apical to basolateral, 10 μM compound, 2 h): 20 10^−6 cm/s; Mean B→A Papp (Caco-2 cells; basolateral to apical, 10 μM compound, 2 h): 30 10^−6 cm/s"
"COc1ccc2c(c1)[C@]13CCCC[C@@H]1[C@H](C2)N(C)CC3 [Dextromethorphan, dextromethorphan, reference compound]",,,,half-life at 1 µM [4]: 1.97 h; microsomal CLint at 1 µM [4]: 19.5 µL/min/mg
CCCCCC(=O)Nc1nc2ccccc2s1 [Molecule 2],74 ± 13 µM,> 200 µM,> 200 µM,
Cc1ccc(C(=O)Nc2nc3ccccc3s2)cc1 [Molecule 3],> 100 µM,> 200 µM,140 µM,
CCCCCCNc1nc2ccccc2s1 [Molecule 4],55 ± 8.5 µM,125 µM,< 100 µM,"MIC Wild type [1, 6]: 125 ± 13 µM; MIC LepB-UE [2]: 82 ± 16 µM"
CCCCNC(=O)Nc1nc2ccccc2s1 [Molecule 5],39 ± 25 µM,> 200 µM,< 100 µM,MIC LepB-UE [2]: 61 ± 9.1 µM
S=C(NCc1ccccc1)Nc1nc2ccccc2s1 [Molecule 6],6 ± 0.1 µM,> 200 µM,,
COc1ccc(NC(=S)Nc2nc3ccccc3s2)cc1 [Molecule 7],> 100 µM,> 200 µM,> 200 µM,
COc1ccc(NC(=S)Nc2nccs2)cc1 [Molecule 8],21 ± 19 µM,27 µM,,"IC50 [5]: > 200 µM; MIC Wild type [1, 6]: 27 ± 17 µM"
CCCCNC(=S)Nc1ccccn1 [Molecule 9],65 ± 50 µM,> 200 µM,100 µM,
c1ccc2scnc2c1 [Molecule 10],7.6 ± 6.2 µM,> 200 µM,> 100 µM,
"CCCCNC(=S)Nc1nc2ccccc2[nH]1 [Molecule 11, 1-(benzo[d]imidazol-2-yl)-3-butylthiourea]",6 ± 0.1 µM,120 ± 10 µM,29 ± 2.1 µM,IC50 [5]: > 200 µM
"CCCCNC(=S)Nc1nc2c(Cl)cccc2s1 [Molecule 13, 1-butyl-3-(4-chlorobenzo[d]thiazol-2-yl)thiourea]",> 100 µM,> 200 µM,7.9 µM,IC50 [5]: > 200 µM; MIC LepB-UE [2]: 7.9 ± 0.6 µM; IC50 (RAW 264.7 macrophages): 12 ± 2.8 µM
"CCCCNC(=S)NC1=NCCS1 [Molecule 15, 1-butyl-3-(4,5-dihydrothiazol-2-yl)thiourea]",75 µM,170 µM,160 µM,"IC50 (HepG2 cells): > 100 µM; MIC Wild type [1, 6]: 170 ± 1.0 µM; MIC LepB-UE [2]: 160 ± 1.0 µM"
"CCCCNC(=S)Nc1nc(C)cs1 [Molecule 16, 1-butyl-3-(4-methylthiazol-2-yl)thiourea]",> 100 µM,59 ± 1 µM,85 ± 17 µM,IC50 [5]: > 200 µM
"CCCCNC(=S)Nc1nc(C)c(C)s1 [Molecule 17, 1-butyl-3-(4,5-dimethylthiazol-2-yl)thiourea]",> 100 µM,> 200 µM,112 ± 25 µM,
"CCCCNC(=S)Nc1nc(C)c[nH]1 [Molecule 18, 1-butyl-3-(4-methyl-1H-imidazol-2-yl)thiourea]",61 ± 4 µM,44 µM,51 µM,"MIC Wild type [1, 6]: 44 ± 8.0 µM; MIC LepB-UE [2]: 51 ± 1.0 µM"
"CCCCNC(=S)Nc1ccnn1C [Molecule 19, 1-butyl-3-(1-methyl-1H-pyrazol-5-yl)thiourea]",> 100 µM,> 200 µM,> 200 µM,IC50 [5]: > 200 µM
"CCCCNC(=S)Nc1nccc(C)n1 [Molecule 20, 1-butyl-3-(4-methylpyrimidin-2-yl)thiourea]",> 100 µM,> 200 µM,> 200 µM,
"CCCCNC(=S)Nc1ncc(C)o1 [Molecule 22, 1-butyl-3-(5-methyloxazol-2-yl)thiourea]",32 ± 19 µM,10 µM,8 to 9 µM,"MIC Wild type [1, 6]: 10 ± 12 µM; MIC LepB-UE [2]: 9.1 ± 0.4 µM; IC50 (RAW 264.7 macrophages): 7.1 ± 1.5 µM"
"CCCCSC(=S)Nc1nc2ccccc2s1 [Molecule 25, butyl benzo[d]thiazol-2-ylcarbamodithioate]",29 ± 1 µM,90 ± 20 µM,101 ± 27 µM,
"CCCCN(C)C(=S)Nc1nc2ccccc2s1 [Molecule 27, 3-(benzo[d]thiazol-2-yl)-1-butyl-1-methylthiourea]",5.6 µM,195 ± 7 µM,155 to 195 µM,"IC50 (HepG2 cells): 6 ± 5 µM; IC50 [5]: > 200 µM; MIC [1, 8]: 155 to 195 µM; MIC LepB-UE [2]: 155 ± 36 µM"
"CC(C)CNC(=S)Nc1nc2ccccc2s1 [Molecule 28, 1-(benzo[d]thiazol-2-yl)-3-isobutylthiourea]",,,12 to 21 µM,MIC LepB-UE [2]: 21 ± 11 µM
"CCCCNC(=S)Nc1ccc2scnc2c1 [Molecule 30, 1-(benzo[d]thiazol-5-yl)-3-butylthiourea]",> 100 µM,73 ± 12 µM,49 ± 15 µM,
"CCCCNC(=S)Nc1nc2cc(Cl)ccc2o1 [Molecule 32, 1-butyl-3-(5-chlorobenzo[d]oxazol-2-yl) thiourea]",9 ± 3 µM,84 ± 13 µM,68 ± 3 µM,
"CCCCNC(=S)Nc1nc2ccc(Cl)cc2o1 [Molecule 33, 1-butyl-3-(6-chlorobenzo[d]oxazol-2-yl)thiourea]",32 ± 3 µM,> 200 µM,49 ± 6 µM,IC50 [5]: > 200 µM
"CCCCNC(=S)Nc1nc2cccc(Cl)c2o1 [Molecule 34, 1-butyl-3-(7-chlorobenzo[d]oxazol-2-yl)thiourea]",13 ± 3 µM,> 200 µM,53 ± 1 µM,IC50 (RAW 264.7 macrophages): 5.8 ± 0.4 µM
"CC(=O)CC(c1ccccc1)c1c(O)c2ccccc2oc1=O (centres unmarked) [Warfarin, reference compound]",,,,"recovery at 4 h, 5 µM ([3]; RED device, read-out: Post-Assay Recovery): 88.6%; fraction unbound ([3]; 5 µM, dialysed against PBS 4 h at 37C, read-out: Mean plasma fraction Bound (converted)): 0.007; fraction unbound ([3]; 5 µM, dialysed against PBS 4 h at 37C, read-out: Mean plasma fraction Unbound Fuplasma): 0.0067"
